Columns and labels:
HDAC8 = target: T1, HDAC8 (Homo sapiens, UniProt Q9BY41); experiment: In vitro enzymatic assay HDAC8 (Fluor de Lys); format: biochemical; details: average of at least 2 independent experiments in duplicates ± SEM
T1 construct: purchased Sigma Aldrich or Reaction Biology Corporation
T1 sequence (Q9BY41 1-377): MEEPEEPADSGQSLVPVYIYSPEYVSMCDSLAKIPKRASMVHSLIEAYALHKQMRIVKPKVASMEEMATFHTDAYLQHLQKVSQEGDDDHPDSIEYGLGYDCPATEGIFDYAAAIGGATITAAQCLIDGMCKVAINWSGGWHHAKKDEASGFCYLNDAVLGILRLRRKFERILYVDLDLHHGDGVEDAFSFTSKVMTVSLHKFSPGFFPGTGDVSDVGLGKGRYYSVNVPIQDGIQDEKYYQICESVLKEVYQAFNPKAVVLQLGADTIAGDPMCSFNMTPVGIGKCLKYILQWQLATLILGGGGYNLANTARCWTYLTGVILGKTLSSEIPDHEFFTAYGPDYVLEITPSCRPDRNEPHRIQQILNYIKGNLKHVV

[1] = Cytotoxicity XTT, HEK 293; format: cell-based; details: human, HEK 293 cells (ATCC CRL-1573), mean ± SD of 3 independent experiments in triplicate, read-out: cytotoxic IC50 HEK 293
Procedure: HeLa and HEK 293 cells (ATCC CRL-1573) were cultured as described above and seeded into 96-well plates at 400 cells/well. Test and standard compounds were added to plate wells in triplicate (0.05% DMSO in culture medium) in a range of six concentrations. Following 72 h of incubation, […] of an activated XTT solution was added to the cells (1 mg/mL). The absorbance was measured at 450 nm after 2 h incubation at 37 °C. The growth of the compound-treated cells was compared with the growth of vehicle-treated control cells. IC50 values were calculated with GraphPad Prism 6.0.

PAMPA-BBB = format: in vitro ADME
Procedure: The PAMPA experiment was performed according to the PAMPA-BBB method described by Di et al.[46]. Test compounds were dissolved at 20 mM in DMSO and then diluted 200 times using a buffer solution at pH 7.4 (prepared according to the Geigy table, containing 54 mM Na2HPO4 and 13 mM KH2PO4). The resulting solutions, containing the compounds at 100 μM (0.5% DMSO), represented the donor solutions at the initial time. A total of 280 μL of the donor solution were added in each well of a Teflon® 96-well microplate (Millipore MSSACCEPTOR) forming the donor compartments. Each well of a hydrophobic polyvinylidene fluoride (PVDF) 96-well microtitre filter plate (Multiscreen® MAIPN4550, 70% porosity, pore diameter 0.45 μm, cross-sectional area 0.3 cm^2) was impregnated with 4 μL of a polar brain lipids solution (20 mg/mL in dodecane, PBL obtained from Avanti Polar Lipids), placed under a fume hood and subjected to constant shaking at 75 rpm for approximately 10 min to homogeneously lay the artificial membrane. […] Each tested compound was analysed in triplicate. The effective passive permeability value (Pe) was calculated according the two-way flux equations, obtained from the Fick’s law[47]. The calculated effective passive permeability values Pe were considered relevant only if RSD < 15% as quality control was fulfilled. […]

Q: With NNC(=O)c1ccc(COc2ccccc2Cl)cc1 [AK-14] as the compound, how does the IC50 (HDAC8) read?
A: > 300 µM

Q: What about the IC50 at 72 h [1] of the same compound?
A: 34.5 ± 4.8 µM

Q: What about the Papp at 18 h, 100 μM (PAMPA-BBB; PAMPA, pH 7.4, 100 μM donor, 18 hours, room temperature, read-out: effective passive permeability Pe (PAMPA-BBB)) of the same compound?
A: 6.5 ×10⁻⁶ cm/s

Q: And the PAMPA-BBB classification (PAMPA-BBB; pH 7.4)?
A: CNS +

Reference: paper PMC4941420, “A Rational Approach for the Identification of Non-Hydroxamate HDAC6-Selective Inhibitors” (Scientific Reports, 2016)
